What follows are compounds tested on HCT116 cells (assay: In vitro cytotoxicity measured by the cell colony formation assay). Details: HCT116 cells, 72 h drug incubation, colonies counted after 7 days; ID50 = drug concentration producing 50% inhibition of colony formation; read-out: IN VITRO ID 50 (nm) HCT116.
Assay type: cell-based
How it was run: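 Colony-forming survival was scored 7 days after a 72 h, 37 °C compound exposure followed by washout into fresh medium.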

SMILES | IC50 [nM]
CCNC(=O)O[C@H]1C[C@H]2OC[C@@]2(OC(C)=O)C2[C@H](OC(=O)c3ccccc3)[C@]3(O)C[C@H](OC(=O)[C@H](O)[C@@H](NC(=O)OC(C)(C)C)c4ccco4)C(C)=C([C@@H](O)C(=O)[C@@]21C)C3(C)C (some centres unmarked) [Compound 6696] | < 1

Same assay, conditions: HCT116 cells, 72 h incubation with drug, colonies counted after 7 days; ID50 = drug concentration producing 50% inhibition of colony formation; read-out: IN VITRO ID 50 (nm) HCT116

SMILES | IC50 [nM]
COC(=O)O[C@H]1C(=O)[C@@]2(C)C([C@H](OC(=O)c3ccccc3)[C@]3(O)C[C@H](OC(=O)[C@H](O)[C@H](C=C(C)C)NC(=O)OC(C)(C)C)C(C)=C1C3(C)C)[C@]1(OC(C)=O)CO[C@@H]1C[C@@H]2O (some centres unmarked) [Compound 1999] | < 1
COC(=O)O[C@H]1C[C@H]2OC[C@@]2(OC(C)=O)C2[C@H](OC(=O)c3ccccc3)[C@]3(O)C[C@H](OC(=O)[C@H](O)[C@@H](NC(=O)OCC(C)C)c4cccs4)C(C)=C([C@@H](O)C(=O)[C@@]21C)C3(C)C (some centres unmarked) [Compound 4355] | < 1
C/C=C/C(=O)N[C@@H](c1cccs1)[C@@H](O)C(=O)O[C@H]1C[C@@]2(O)[C@@H](OC(=O)c3ccccc3)C3[C@](C)(C(=O)[C@H](O)C(=C1C)C2(C)C)[C@@H](OC(=O)OCC)C[C@H]1OC[C@@]31OC(C)=O (some centres unmarked) [Compound 4855] | < 1
COC(=O)O[C@H]1C[C@H]2OC[C@@]2(OC(C)=O)C2[C@H](OC(=O)c3ccccc3)[C@]3(O)C[C@H](OC(=O)[C@H](O)[C@@H](NC(=O)OC(C)(C)C)c4ccsc4)C(C)=C([C@@H](O)C(=O)[C@@]21C)C3(C)C (some centres unmarked) [Compound 4474] | < 1
CCOC(=O)O[C@H]1C[C@H]2OC[C@@]2(OC(C)=O)C2[C@H](OC(=O)c3ccccc3)[C@]3(O)C[C@H](OC(=O)[C@H](O)[C@@H](NC(=O)OC(C)(C)C)c4ccoc4)C(C)=C([C@@H](O)C(=O)[C@@]21C)C3(C)C (some centres unmarked) [Compound 4464] | < 1
CCOC(=O)O[C@H]1C(=O)[C@@]2(C)C([C@H](OC(=O)c3ccccc3)[C@]3(O)C[C@H](OC(=O)[C@H](O)[C@@H](NC(=O)OC(C)(C)C)C4CCC4)C(C)=C1C3(C)C)[C@]1(OC(C)=O)CO[C@@H]1C[C@@H]2O (some centres unmarked) [Compound 1855] | < 10
CCCC(=O)N[C@@H](c1cccs1)[C@@H](O)C(=O)O[C@H]1C[C@@]2(O)[C@@H](OC(=O)c3ccccc3)C3[C@](C)(C(=O)[C@H](OC(=O)OCC)C(=C1C)C2(C)C)[C@@H](O)C[C@H]1OC[C@@]31OC(C)=O (some centres unmarked) [Compound 3155] | < 1
CCOC(=O)O[C@H]1C(=O)[C@@]2(C)C([C@H](OC(=O)c3ccccc3)[C@]3(O)C[C@H](OC(=O)[C@H](O)[C@@H](NC(=O)OC(C)(C)C)C4CC4)C(C)=C1C3(C)C)[C@]1(OC(C)=O)CO[C@@H]1C[C@@H]2O (some centres unmarked) [Compound 5171] | < 1
COC(=O)O[C@H]1C[C@H]2OC[C@@]2(OC(C)=O)C2[C@H](OC(=O)c3ccccc3)[C@]3(O)C[C@H](OC(=O)[C@H](O)[C@@H](NC(=O)OC(C)(C)C)c4ccsc4)C(C)=C([C@@H](O)C(=O)[C@@]21C)C3(C)C (some centres unmarked) [Compound 4444] | < 1
CCOC(=O)N[C@@H](c1cccs1)[C@@H](O)C(=O)O[C@H]1C[C@@]2(O)[C@@H](OC(=O)c3ccccc3)C3[C@](C)(C(=O)[C@H](OC(=O)OCC)C(=C1C)C2(C)C)[C@@H](O)C[C@H]1OC[C@@]31OC(C)=O (some centres unmarked) [Compound 2988] | < 1

Same assay, conditions: HCT116 cells, colony formation, 72 h incubation with drug, colonies counted after 7 days; ID50 = drug concentration producing 50% inhibition of colony formation; read-out: IN VITRO ID 50 (nm) HCT116

SMILES | IC50 [nM]
CCNC(=O)O[C@H]1C(=O)[C@@]2(C)C([C@H](OC(=O)c3ccccc3)[C@]3(O)C[C@H](OC(=O)[C@H](O)[C@@H](NC(=O)OC(C)(C)C)c4cccnc4)C(C)=C1C3(C)C)[C@]1(OC(C)=O)CO[C@@H]1C[C@@H]2O (some centres unmarked) [Compound 2616] | 27
C/C=C/C(=O)N[C@@H](c1ccco1)[C@@H](O)C(=O)O[C@H]1C[C@@]2(O)[C@@H](OC(=O)c3ccccc3)C3[C@](C)(C(=O)[C@H](OC(=O)NCC)C(=C1C)C2(C)C)[C@@H](O)C[C@H]1OC[C@@]31OC(C)=O (some centres unmarked) [Compound 6072] | < 1
CCNC(=O)O[C@H]1C(=O)[C@@]2(C)C([C@H](OC(=O)c3ccccc3)[C@]3(O)C[C@H](OC(=O)[C@H](O)[C@@H](NC(=O)OC(C)(C)C)c4cccs4)C(C)=C1C3(C)C)[C@]1(OC(C)=O)CO[C@@H]1C[C@@H]2O (some centres unmarked) [Compound 2722, 3′-Desphenyl-3′-(2-thienyl)-10-N-ethylcarbamoyl docetaxel] | < 1
CCNC(=O)O[C@H]1C(=O)[C@@]2(C)C([C@H](OC(=O)c3ccccc3)[C@]3(O)C[C@H](OC(=O)[C@H](O)[C@@H](NC(=O)OC(C)(C)C)c4ccsc4)C(C)=C1C3(C)C)[C@]1(OC(C)=O)CO[C@@H]1C[C@@H]2O (some centres unmarked) [Compound 2622] | < 1

Same assay, conditions: HCT116 colony formation; 72 h drug incubation, colonies counted after 7 days; Example 5, C-7 ester/C-10 hydroxy taxanes; read-out: IN VITRO ID 50 (nm) HCT116

SMILES | IC50 [nM]
CC(=O)O[C@@]12CO[C@@H]1C[C@H](OC(=O)C(C)C)[C@@]1(C)C(=O)[C@H](O)C3=C(C)[C@@H](OC(=O)[C@H](O)[C@@H](NC(=O)C(C)C)c4ccco4)C[C@@](O)([C@@H](OC(=O)c4ccccc4)C12)C3(C)C (some centres unmarked) [Compound 6121] | < 10
CCC(=O)O[C@H]1C[C@H]2OC[C@@]2(OC(C)=O)C2[C@H](OC(=O)c3ccccc3)[C@]3(O)C[C@H](OC(=O)[C@H](O)[C@@H](NC(=O)OCC(C)C)c4cccs4)C(C)=C([C@@H](O)C(=O)[C@@]21C)C3(C)C (some centres unmarked) [Compound 3232] | < 1

Same assay, conditions: HCT116 colony formation; 72 h drug incubation, colonies counted after 7 days; Example 10, C-10 ester/C-7 hydroxy taxanes; read-out: IN VITRO ID 50 (nm) HCT116

SMILES | IC50 [nM]
CCC(=O)O[C@H]1C(=O)[C@@]2(C)C([C@H](OC(=O)c3ccccc3)[C@]3(O)C[C@H](OC(=O)[C@H](O)[C@@H](NC(=O)c4ccco4)c4cccs4)C(C)=C1C3(C)C)[C@]1(OC(C)=O)CO[C@@H]1C[C@@H]2O (some centres unmarked) [Compound 3053] | < 1
CCC(=O)O[C@H]1C(=O)[C@@]2(C)C([C@H](OC(=O)c3ccccc3)[C@]3(O)C[C@H](OC(=O)[C@H](O)[C@@H](NC(=O)OC(C)(C)C)C(C)C)C(C)=C1C3(C)C)[C@]1(OC(C)=O)CO[C@@H]1C[C@@H]2O (some centres unmarked) [Compound 0583] | < 10
CCCC(=O)O[C@H]1C(=O)[C@@]2(C)C([C@H](OC(=O)c3ccccc3)[C@]3(O)C[C@H](OC(=O)[C@H](O)[C@@H](NC(=O)OC(C)(C)C)c4cccnc4)C(C)=C1C3(C)C)[C@]1(OC(C)=O)CO[C@@H]1C[C@@H]2O (some centres unmarked) [Compound 0966] | < 10
CCC(=O)O[C@H]1C(=O)[C@@]2(C)C([C@H](OC(=O)c3ccccc3)[C@]3(O)C[C@H](OC(=O)[C@H](O)[C@@H](NC(=O)OC(C)(C)C)c4ccco4)C(C)=C1C3(C)C)[C@]1(OC(C)=O)CO[C@@H]1C[C@@H]2O (some centres unmarked) [Compound 0536] | < 1
CC(=O)O[C@@]12CO[C@@H]1C[C@H](O)[C@@]1(C)C(=O)[C@H](OC(=O)C=C(C)C)C3=C(C)[C@@H](OC(=O)[C@H](O)[C@@H](NC(=O)OC(C)(C)C)c4ccccn4)C[C@@](O)([C@@H](OC(=O)c4ccccc4)C12)C3(C)C (some centres unmarked) [Compound 2464] | < 1
CC(=O)O[C@@]12CO[C@@H]1C[C@H](O)[C@@]1(C)C(=O)[C@H](OC(=O)C3CC3)C3=C(C)[C@@H](OC(=O)[C@H](O)[C@@H](NC(=O)OC(C)C)c4cccs4)C[C@@](O)([C@@H](OC(=O)c4ccccc4)C12)C3(C)C (some centres unmarked) [Compound 3071] | < 1
CCCC(=O)O[C@H]1C(=O)[C@@]2(C)C([C@H](OC(=O)c3ccccc3)[C@]3(O)C[C@H](OC(=O)[C@H](O)[C@@H](NC(=O)c4cccnc4)c4cccs4)C(C)=C1C3(C)C)[C@]1(OC(C)=O)CO[C@@H]1C[C@@H]2O (some centres unmarked) [Compound 4190] | < 10
CCOC(=O)N[C@@H](c1cccs1)[C@@H](O)C(=O)O[C@H]1C[C@@]2(O)[C@@H](OC(=O)c3ccccc3)C3[C@](C)(C(=O)[C@H](OC(=O)CC)C(=C1C)C2(C)C)[C@@H](O)C[C@H]1OC[C@@]31OC(C)=O (some centres unmarked) [Compound 3370] | < 1
C/C=C/C(=O)O[C@H]1C(=O)[C@@]2(C)C([C@H](OC(=O)c3ccccc3)[C@]3(O)C[C@H](OC(=O)[C@H](O)[C@@H](NC(=O)OC(C)(C)C)C4CCC4)C(C)=C1C3(C)C)[C@]1(OC(C)=O)CO[C@@H]1C[C@@H]2O (some centres unmarked) [Compound 2424] | < 10
CC(=O)OC12COC1CC(O)C1(C)C(=O)C(OC(=O)c3cccs3)C3=C(C)C(OC(=O)C(O)C(NC(=O)OC(C)(C)C)c4ccncc4)CC(O)(C(OC(=O)c4ccccc4)C21)C3(C)C (centres unmarked) [Compound 1954] | < 1
C/C=C/C(=O)O[C@H]1C(=O)[C@@]2(C)C([C@H](OC(=O)c3ccccc3)[C@]3(O)C[C@H](OC(=O)[C@H](O)[C@@H](NC(=O)OC(C)(C)C)c4cccnc4)C(C)=C1C3(C)C)[C@]1(OC(C)=O)CO[C@@H]1C[C@@H]2O (some centres unmarked) [Compound 2353] | < 10
CCCC(=O)O[C@H]1C(=O)[C@@]2(C)C([C@H](OC(=O)c3ccccc3)[C@]3(O)C[C@H](OC(=O)[C@H](O)[C@@H](NC(=O)OC(C)C)c4ccco4)C(C)=C1C3(C)C)[C@]1(OC(C)=O)CO[C@@H]1C[C@@H]2O (some centres unmarked) [Compound 3417] | < 1
CCC(=O)O[C@H]1C(=O)[C@@]2(C)C([C@H](OC(=O)c3ccccc3)[C@]3(O)C[C@H](OC(=O)[C@H](O)[C@@H](NC(=O)OC(C)(C)C)c4ccc([N+](=O)[O-])cc4)C(C)=C1C3(C)C)[C@]1(OC(C)=O)CO[C@@H]1C[C@@H]2O (some centres unmarked) [Compound 0602] | < 1
CC(=O)O[C@@]12CO[C@@H]1C[C@H](O)[C@@]1(C)C(=O)[C@H](OC(=O)C3CC3)C3=C(C)[C@@H](OC(=O)[C@H](O)[C@@H](NC(=O)c4ccccc4)c4ccoc4)C[C@@](O)([C@@H](OC(=O)c4ccccc4)C12)C3(C)C (some centres unmarked) [Compound 2826] | < 1

Same assay, conditions: HCT116 colony formation; 72 h drug incubation, colonies counted after 7 days; Example 15, C-7 substituted acetate/C-10 hydroxy taxanes; read-out: IN VITRO ID 50 (nm) HCT116

SMILES | IC50 [nM]
CC(=O)OCC(=O)O[C@H]1C[C@H]2OC[C@@]2(OC(C)=O)C2[C@H](OC(=O)c3ccccc3)[C@]3(O)C[C@H](OC(=O)[C@H](O)[C@@H](NC(=O)C=C(C)C)c4ccco4)C(C)=C([C@@H](O)C(=O)[C@@]21C)C3(C)C (some centres unmarked) [Compound 5544] | < 1

Reference: US6638973B2, “Taxane formulations” (FSU Research Foundation, Inc., priority 2000, dated 2003)
